Experimental data reported in patent US6384019B1, “Gemcitabine derivatives” (Norsk Hydro ASA, priority 1997, dated 2002).
Several values for one entry are separate records, joined by “and”; a condition that tells them apart may be missing. Equal values may be shown once. Read-outs that look alike come from different tables or passages of the source.

Columns and labels:
[1] = system: human ovarian tumour line A2780; assay: Cytotoxicity, continuous drug exposure 72 hours, SRB assay; assay type: cell-based
Description: (§1) The cytoxicity activity of Gemcitabine-N^4-elaidic amide and Gemcitabine-5′-elaidic ester were investigated in 2 pairs of rodent and human tumour cell lines, each consisting of a parent line and a subline either resistant or cross-resistant to Gemcitabine.
(§2) The cell lines were the human ovarian tumour line A2780 and subline AG6000 which is resistant to Gemcitabine and has a deficiency of deoxycytidine kinase, and the murine colon tumour line C26A and the subline C26G with no altered deoxycytidine kinase but a 10-fold decrease in thymidine kinase I. The cytotoxicity of each compound was evaluated following continuous drug exposure for 72 hours. The cell numbers were determined by SRB assay, and percentage growth inhibition was calculated for each tumour line as IC50 value, given in μM, that is the concentration of the compound giving rise to a 50% growth inhibition compared to control.

[2] = system: murine colon tumour line C26A; assay: as above; assay type: cell-based; details: 72 hours continuous exposure, read-out: IC50 cytotoxicity C26-A
Description: as §1, §2

subline C26G = assay: as above; assay type: cell-based, murine; details: 72 hours continuous exposure, read-out: IC50 cytotoxicity C2G-G
Description: as §1, §2

[3] = system: subline AG6000 (resistant to Gemcitabine, deficiency of deoxycytidine kinase); assay: as above; assay type: cell-based, human
Description: as §1, §2

CEM cells = assay: Cytostatic activity in CEM cells with and without nucleoside transport modifiers; assay type: cell-based; details: for Rise in IC50 with the addition of NT inhibitors: with versus without NT inhibitors
Protocol: The cytostatic activity of gemcitabine and gemcitabine-5′-elaidic acid ester in CEM cells was determined with and without the nucleoside transport modifiers Nitrobenzylthioinosine (NBMPR) or Persantine (Pyridamole). […] With the addition of NT inhibitors, there is a ten-fold rise in the IC50 gemcitabine values, while the IC50 gemcitabine-5′-elaidic acid ester is little affected (1.3-1.5 increase).

[4] = system: murine colon cancer Co-26; assay: Co-26 inoculated intrasplenic to mice, intraperitoneal treatment; assay type: in vivo
Protocol: (§3) The anti tumour effect of Gemcitabine-N^4-elaidic amide or Gemcitabine-5′-elaidic ester were investigated in-vivo in mice in two different tumour types, both with single and repeated dosing
Balb/c female mice were inoculated with the murine colon cancer Co-26 in the spleen on day 0. In this model, tumours develop mainly in the liver. Intraperitoneal treatment was started on day 1. Single doses of the compounds were tested in comparison with Gemcitabine at single dose. Saline was used as control.
In parallel experiment, dosing was repeated on days 1-11

[5] = system: murine lymphatic leukaemia P 388 cells; assay: P-388 ip in mice, single or repeated doses; assay type: in vivo
Description: as §3
B6D2F1 female mice were implanted with the murine lymphatic leukaemia P 388 cells intraperitoneally. Treatments were initiated on day 1 post implantation of cells intraperitoneally. […] Single dose treatment with Gemcitabine-5′-elaidic ester was effective with prolonged survival time and long term survivor observed compared to the same dose of Gemcitabine.

[6] = cited from earlier work
[7] = Co-26, repeated dosing days 1-11, 1 mg/kg
[8] = Co-26, repeated dosing days 1-11, 4 mg/kg
[9] = Co-26, single dose ip day 1, 75 mg/kg
[10] = Co-26, single dose ip day 1, 100 mg/kg
[11] = P-388, repeated dose days 1-4, 15 Mg/kg
[12] = P-388, repeated dose days 1-11, 1 mg/kg
[13] = P-388, repeated dose days 1-11, 4 mg/kg
[14] = P-388, single dose treatment, 75 mg/kg
[15] = P-388, single dose treatment, 100 mg/kg
[16] = Co-26, single dose ip day 1, 25 mg/kg
[17] = P-388, repeated dose days 1-4, 1 Mg/kg
[18] = P-388, repeated dose days 1-4, 4 Mg/kg

Structure (SMILES): Nc1ccn([C@@H]2O[C@H](CO)[C@@H](O)C2(F)F)c(=O)n1 [Gemcitabine, 2′,2′-difluoro-deoxycytidine]
- IC50 ([1]; Homo sapiens, A2780, 72 hours continuous exposure): 0.5 nM
- IC50 ([2]; Mus musculus): 5.5 nM
- IC50 (subline C26G; Mus musculus): 7.5 nM
- IC50 ([3]; Homo sapiens, AG6000, 72 hours continuous exposure): 100000 nM
- Rise in IC50 with the addition of NT inhibitors (CEM cells; CEM cells): ten-fold rise
- IC50 (CEM cells; Homo sapiens, CCRF-CEM, read-out: IC50 Persantine 4 μg/ml): 1260 ± 40 nM
- IC50 (CEM cells; Homo sapiens, CCRF-CEM, CEM cells, NBMPR 100 μM, read-out: IC50 NBMPR 100 μM): 1110 ± 80 nM
- IC50 (CEM cells; Homo sapiens, CCRF-CEM, CEM cells, no inhibitor, read-out: IC50 No inhibitor): 110 ± 10 nM
- Long term survivors (>46 d) [4, 7]:  2/8
- Mean survival time T/C [4, 7]: 170.6%
- Toxic deaths [4, 7]: ⅛
- Long term survivors (>46 d) [4, 8]:  0/8
- Mean survival time T/C [4, 8]: toxic
- Toxic deaths [4, 8]:  8/8
- Long term survivors (>35 d) [4, 9]:  2/7
- Mean survival time T/C [4, 9]: 132.8%
- Toxic deaths [4, 9]:  0/7
- Long term survivors (>35 d) [4, 10]:  4/7
- Mean survival time T/C [4, 10]: 116.2%
- Toxic deaths [4, 10]:  0/7
- Long term survivors (>35 d) [5, 11]:  0/6
- Mean survival time T/C [5, 11]: 58.0%
- Toxic deaths [5, 11]: all animals died of toxicity and  6/6
- Long term survivors (>45 d) [5, 12]:  0/6
- Mean survival time T/C [5, 12]: 178.8%
- Toxic deaths [5, 12]:  0/6
- Long term survivors (>45 d) [5, 13]:  0/6
- Mean survival time T/C [5, 13]: 71.9%
- Toxic deaths [5, 13]: 6/6
- Long term survivors (>35 d) [5, 14]:  0/6
- Mean survival time T/C [5, 14]: 138.9%
- Toxic deaths [5, 14]:  0/7
- Plasma concentration that inhibits the anti-cancer effect (saturation of the phosphorylation mechanism) [6]: above 35 μM
- Plasma concentration with optimal effect [6]: about 20 μM

Structure (SMILES): CCCCCCCC/C=C/CCCCCCCC(=O)OC[C@H]1O[C@@H](n2ccc(N)nc2=O)C(F)(F)[C@@H]1O [Gemcitabine-5′-elaidic ester, Elaidic Acid (5′)-Gemcitabine Ester]
- IC50 ([1]; 72 hours continuous exposure): < 0.1 nM
- IC50 [2]: 0.3 nM
- IC50 (subline C26G): 0.5 nM
- IC50 ([3]; 72 hours continuous exposure): 100000 nM
- IC50 (CEM cells; CEM cells, NBMPR 100 μM, read-out: IC50 NBMPR 100 μM): 72 ± 34 nM
- IC50 (CEM cells; CEM cells, Persantine 4 μg/ml, read-out: IC50 Persantine 4 μg/ml): 65 ± 23 nM
- IC50 (CEM cells; CEM cells, no inhibitor, read-out: IC50 No inhibitor): 47 ± 6 nM
- Potency relative to the mother drug in the "resistant" situation (CEM cells; CEM cells, with NT inhibitors, versus gemcitabine): 15-20 fold
- Rise in IC50 with the addition of NT inhibitors (CEM cells; CEM cells): 1.3-1.5 fold
- Long term survivors (>46 d) [4, 7]: ⅛
- Mean survival time T/C [4, 7]: 150.6%
- Toxic deaths [4, 7]:  0/8
- Long term survivors (>46 d) [4, 8]: ⅜
- Mean survival time T/C [4, 8]: 166.9%
- Toxic deaths [4, 8]:  2/8
- Long term survivors (>35 d) [4, 9]:  1/7
- Mean survival time T/C [4, 9]: 128.6%
- Toxic deaths [4, 9]:  0/7
- Long term survivors (>35 d) [4, 10]:  4/7
- Mean survival time T/C [4, 10]: 100.1%
- Toxic deaths [4, 10]:  0/7
- Long term survivors (>45 d) [5, 12]:  0/6
- Mean survival time T/C [5, 12]: 317.0%
- Toxic deaths [5, 12]:  0/6
- Long term survivors (>45 d) [5, 13]:  2/6
- Mean survival time T/C [5, 13]: 220.6%
- Toxic deaths [5, 13]:  0/6
- Long term survivors (>35 d) [5, 14]: ⅙
- Mean survival time T/C [5, 14]: 186.3%
- Toxic deaths [5, 14]:  0/6
- Long term survivors (>35 d) [5, 15]:  0/6
- Mean survival time T/C [5, 15]: 138.9%
- Toxic deaths [5, 15]:  0/6

Structure (SMILES): CCCCCCCC/C=C/CCCCCCCC(=O)Nc1ccn(C2OC(CO)C(O)C2(F)F)c(=O)n1 (centres unmarked) [Gemcitabine-N^4-elaidic amide, Elaidic Acid (N^4)-Gemcitabine Amide]
- IC50 ([1]; 72 hours continuous exposure): < 0.1 nM
- IC50 [2]: < 0.1 nM
- IC50 (subline C26G): < 0.1 nM
- IC50 ([3]; 72 hours continuous exposure): 35000 nM
- Long term survivors (>46 d) [4, 7]:  2/8
- Mean survival time T/C [4, 7]: 155%
- Toxic deaths [4, 7]:  0/8
- Long term survivors (>46 d) [4, 8]: ⅛
- Mean survival time T/C [4, 8]: 185.6%
- Toxic deaths [4, 8]:  0/8
- Long term survivors (>35 d) [4, 16]: 5/8 and ⅝
- Mean survival time T/C [4, 16]: 103.7%
- Toxic deaths [4, 16]: ⅛
- Long term survivors (>35 d) [5, 17]:  2/6
- Mean survival time T/C [5, 17]: 178%
- Toxic deaths [5, 17]:  0/6
- Long term survivors (>35 d) [5, 18]: ⅙
- Mean survival time T/C [5, 18]: 183%
- Toxic deaths [5, 18]:  0/6
- Long term survivors (>45 d) [5, 12]: ⅙
- Mean survival time T/C [5, 12]: 172.5%
- Toxic deaths [5, 12]:  0/6
- Long term survivors (>45 d) [5, 13]:  0/6
- Mean survival time T/C [5, 13]: 215.7%
- Toxic deaths [5, 13]:  0/6
